The results in this text go back to US20250041294A1, “Synergistic compositions for use in the treatment of cancer” (Sartar Therapeutics Oy, priority 2021, published 2025).

One test deals with GOT3 and SA4 cell lines. In words: High throughput drug sensitivity and resistance test, average over cell lines (anagrelide combination). Type of test: cell-based.
Conditions: not given
On the procedure: (§1) Cell lines. PDE3A-positive (GIST882, SA4, and GOT3) and PDE3A-negative cell lines (93TT449, 94T778, LPS141, MLS17656-92, MLS402-91, and SW872) were cultured in RPMI Medium 1640 (Gibco) with 5-, 10- or 20% fetal bovine serum (FBS, gibco), 100 U/mL of penicillin, 100 […] and 0.03 mg/mL of L-glutamine (Pen Strep Glut, Gibco, 10378-016) in a humidified, 5% CO2 atmosphere at 37° C.
(§2) High throughput drug sensitivity and resistance test. A sensitivity and resistance of cancer cell lines to 528 compounds were investigated in 9 cell lines (GIST882, SA4, GOT3, 93TT449, 94T778, LPS141, MLS17656-92, MLS402-91, and SW872). In addition, same compounds were investigated together with anagrelide hydrochloride (100 nM) treatment in the PDE3A low expressing cell lines SA4 and GOT3, and with BAY2666605 (40 nM) in all PDE3A-positive cell lines GIST882, SA4 and GOT3. The compounds were dissolved in 100% dimethyl sulfoxide or water and plated in 10-fold dilutions covering a 10,000-fold concentration range on flat clear bottom 384-well microplates as described in detail earlier (Pulkka O P, et al 2019). A cell viability was measured after 72 hours using CellTiter-Glo Cell Viability assay (Promega Inc.) and PHERAstar FS plate reader (BMG Labtech). The data were normalized to negative (0.01% dimethyl sulfoxide only) and positive (100 μmol/L benzethonium chloride) controls.
(§3) A four-parameter logistic dose-response curves were estimated by using the Marquardt-Levenberg algorithm and Breeze analysis platform. Drug responses to the test compounds were measured using the drug sensitivity score (DSS). Drug synergy partners, which were common in investigated cell lines were identified as following: DSS value of a single agent was subtracted from the DSS value of anagrelide-drug combination in single cell lines. […] The analysis was repeated by using BAY2666605 as a PDE3A modulator.
Turning to `Cn1cc(-c2cnn3c(N)c(Br)c([C@@H]4CCCNC4)nc23)cn1` [MK-8776], the “Average DSS (aDSS)” value was 3.2.

Staying with this test, now noted: anagrelide combination, average of SA4 and GOT3; aDSS higher than 3.0 = synergy.
Regarding `N[C@@H]1CCCN(c2c(/C=C3\SC(=O)NC3=O)cccc2-c2ccccc2)C1` [AZD1208], the “Average DSS (aDSS)” value turned out to be 3.7.

Consider `Cn1ncc(Cl)c1-c1cc(C(=O)N[C@H](CN)Cc2ccc(F)c(F)c2)oc1Cl` [Uprosertib, uprosertib], for which the “Average DSS (aDSS)” value came out at 3.6.

With `CNC(=O)c1nn(C)c2c1C(C)(C)Cc1cnc(Nc3ccc(N4CCN(C)CC4)cc3)nc1-2` [Milciclib, milciclib], the “Average DSS (aDSS)” value is listed as 3.75.

Take `COc1ccc(-c2nc(N3CCOCC3)c3sc(CN(C)c4ncc(C(=O)NO)cn4)cc3n2)cn1` [CUDC-907]: the “Average DSS (aDSS)” value came out at 5.4.

With `COc1ccc(-c2ccc3c(N4CCOC[C@@H]4C)nc(N4CCOC[C@@H]4C)nc3n2)cc1CO` [AZD8055], the “Average DSS (aDSS)” value came out at 3.7.

Consider `Nc1nccc(-c2c(-c3ccc(F)cc3)ncn2C2CCCCC2)n1` [PF-670462], for which the “Average DSS (aDSS)” value came out at 3.65.

On to `CNC(=O)c1ccccc1Nc1cc(Nc2ccc(N3CCOCC3)cc2OC)ncc1C(F)(F)F` [VS-4718], for which the “Average DSS (aDSS)” value was 4.55.

Take `Nc1nc2cc(-c3ccc4ncc(C(=O)N5CCOCC5)n4c3)ccc2o1` [Serabelisib, serabelisib]: the “Average DSS (aDSS)” value was determined as 3.85.

For `CO[C@H]1CC[C@H](N2C(=O)CNc3ncc(-c4ccc(C(C)(C)O)nc4)nc32)CC1` [CC-223], the “Average DSS (aDSS)” value turned out to be 3.2.

Regarding `CC(C)(C)C[C@@H]1N[C@@H](C(=O)N[C@H]2CC[C@H](O)CC2)[C@H](c2cccc(Cl)c2F)[C@]12C(=O)Nc1cc(Cl)ccc12` [SAR405838], the “Average DSS (aDSS)” value is reported as 3.95.

The next test relates to GIST882, GOT3 and SA4 cell lines. In words: High throughput drug sensitivity and resistance test, average over cell lines (BAY2666605 combination). It is filed as cell-based.
Conditions: not given
On the procedure: as §1, §2, §3
As to `Cn1cc(-c2cnn3c(N)c(Br)c([C@@H]4CCCNC4)nc23)cn1` [MK-8776], the “synergy in high-throughput screening (in words)” value (from here on “synergy”) is listed as “synergistic”.

The same test, now with this note: with anagrelide (GOT3, SA4) or BAY2666605 (GIST882, GOT3, SA4).
Regarding `N[C@@H]1CCCN(c2c(/C=C3\SC(=O)NC3=O)cccc2-c2ccccc2)C1` [AZD1208], the “synergy” value is “synergistic”.

On to `Cn1ncc(Cl)c1-c1cc(C(=O)N[C@H](CN)Cc2ccc(F)c(F)c2)oc1Cl` [Uprosertib, uprosertib], for which the “synergy” value is on record as “synergistic”.

As to `CNC(=O)c1nn(C)c2c1C(C)(C)Cc1cnc(Nc3ccc(N4CCN(C)CC4)cc3)nc1-2` [Milciclib, milciclib], the “synergy” value was “synergistic”.

As for `COc1ccc(-c2nc(N3CCOCC3)c3sc(CN(C)c4ncc(C(=O)NO)cn4)cc3n2)cn1` [CUDC-907], the “synergy” value is reported as “synergistic”.

Regarding `COc1ccc(-c2ccc3c(N4CCOC[C@@H]4C)nc(N4CCOC[C@@H]4C)nc3n2)cc1CO` [AZD8055], the “synergy” value was “synergistic”.

`Nc1nccc(-c2c(-c3ccc(F)cc3)ncn2C2CCCCC2)n1` [PF-670462]: the “synergy” value is given as “synergistic”.

Regarding `CNC(=O)c1ccccc1Nc1cc(Nc2ccc(N3CCOCC3)cc2OC)ncc1C(F)(F)F` [VS-4718], the “synergy” value is given as “synergistic”.

Consider `Nc1nc2cc(-c3ccc4ncc(C(=O)N5CCOCC5)n4c3)ccc2o1` [Serabelisib, serabelisib], for which the “synergy” value is “synergistic”.

Consider `CO[C@H]1CC[C@H](N2C(=O)CNc3ncc(-c4ccc(C(C)(C)O)nc4)nc32)CC1` [CC-223], for which the “synergy” value is recorded as “synergistic”.

For `CC(C)(C)C[C@@H]1N[C@@H](C(=O)N[C@H]2CC[C@H](O)CC2)[C@H](c2cccc(Cl)c2F)[C@]12C(=O)Nc1cc(Cl)ccc12` [SAR405838], the “synergy” value is given as “synergistic”.

A further test relates to SA4 cell line. The test is described as follows: High throughput drug sensitivity and resistance test (CellTiter-Glo, 72 hours). It is filed as cell-based.
Conditions: not given
Here is the method: as §1, §2, §3
A general note: Cellular ATP, detected with luciferase, serves as a proxy for viable cell number.
With `Cn1cc(-c2cnn3c(N)c(Br)c([C@@H]4CCCNC4)nc23)cn1` [MK-8776], the “SA4 cell line: DSS(combo (anagrelide))-DSS(drug)” value (“SA4 cell line” below) turned out to be 4.8.

Still in this test, the particulars now being: drug combined with anagrelide hydrochloride (100 nM) minus drug alone, SA4.
Consider `N[C@@H]1CCCN(c2c(/C=C3\SC(=O)NC3=O)cccc2-c2ccccc2)C1` [AZD1208], for which the “SA4 cell line” value worked out at 7.1.

Turning to `Cn1ncc(Cl)c1-c1cc(C(=O)N[C@H](CN)Cc2ccc(F)c(F)c2)oc1Cl` [Uprosertib, uprosertib], the “SA4 cell line” value was 5.4.

For `CNC(=O)c1nn(C)c2c1C(C)(C)Cc1cnc(Nc3ccc(N4CCN(C)CC4)cc3)nc1-2` [Milciclib, milciclib], the “SA4 cell line” value was 3.9.

As to `COc1ccc(-c2nc(N3CCOCC3)c3sc(CN(C)c4ncc(C(=O)NO)cn4)cc3n2)cn1` [CUDC-907], the “SA4 cell line” value is 10.8.

As to `COc1ccc(-c2ccc3c(N4CCOC[C@@H]4C)nc(N4CCOC[C@@H]4C)nc3n2)cc1CO` [AZD8055], the “SA4 cell line” value worked out at 5.9.

`Nc1nccc(-c2c(-c3ccc(F)cc3)ncn2C2CCCCC2)n1` [PF-670462]: the “SA4 cell line” value is 7.1.

As to `CNC(=O)c1ccccc1Nc1cc(Nc2ccc(N3CCOCC3)cc2OC)ncc1C(F)(F)F` [VS-4718], the “SA4 cell line” value is 5.3.

In the case of `Nc1nc2cc(-c3ccc4ncc(C(=O)N5CCOCC5)n4c3)ccc2o1` [Serabelisib, serabelisib], the “SA4 cell line” value was found to be 5.8.

`CO[C@H]1CC[C@H](N2C(=O)CNc3ncc(-c4ccc(C(C)(C)O)nc4)nc32)CC1` [CC-223]: the “SA4 cell line” value came out at 5.6.

For `CC(C)(C)C[C@@H]1N[C@@H](C(=O)N[C@H]2CC[C@H](O)CC2)[C@H](c2cccc(Cl)c2F)[C@]12C(=O)Nc1cc(Cl)ccc12` [SAR405838], the “SA4 cell line” value came to 7.8.

The next test concerns GOT3 cell line. Described as above. Type of test: cell-based.
Conditions: not given
On the procedure: as §1, §2, §3
As for `Cn1cc(-c2cnn3c(N)c(Br)c([C@@H]4CCCNC4)nc23)cn1` [MK-8776], the “GOT3 cell line: DSS(combo (anagrelide))-DSS(drug)” value (shortened to “GOT3 cell line”) stood at 1.6.

The test is the same for the next values; noted with them: drug combined with anagrelide hydrochloride (100 nM) minus drug alone, GOT3.
On to `N[C@@H]1CCCN(c2c(/C=C3\SC(=O)NC3=O)cccc2-c2ccccc2)C1` [AZD1208], for which the “GOT3 cell line” value is given as 0.3.

Take `Cn1ncc(Cl)c1-c1cc(C(=O)N[C@H](CN)Cc2ccc(F)c(F)c2)oc1Cl` [Uprosertib, uprosertib]: the “GOT3 cell line” value turned out to be 1.8.

Turning to `CNC(=O)c1nn(C)c2c1C(C)(C)Cc1cnc(Nc3ccc(N4CCN(C)CC4)cc3)nc1-2` [Milciclib, milciclib], the “GOT3 cell line” value turned out to be 3.6.

In the case of `COc1ccc(-c2nc(N3CCOCC3)c3sc(CN(C)c4ncc(C(=O)NO)cn4)cc3n2)cn1` [CUDC-907], the “GOT3 cell line” value was 0.

Turning to `COc1ccc(-c2ccc3c(N4CCOC[C@@H]4C)nc(N4CCOC[C@@H]4C)nc3n2)cc1CO` [AZD8055], the “GOT3 cell line” value is given as 1.5.

`Nc1nccc(-c2c(-c3ccc(F)cc3)ncn2C2CCCCC2)n1` [PF-670462]: the “GOT3 cell line” value amounted to 0.2.

Consider `CNC(=O)c1ccccc1Nc1cc(Nc2ccc(N3CCOCC3)cc2OC)ncc1C(F)(F)F` [VS-4718], for which the “GOT3 cell line” value is on record as 3.8.

Consider `Nc1nc2cc(-c3ccc4ncc(C(=O)N5CCOCC5)n4c3)ccc2o1` [Serabelisib, serabelisib], for which the “GOT3 cell line” value turned out to be 1.9.

As to `CO[C@H]1CC[C@H](N2C(=O)CNc3ncc(-c4ccc(C(C)(C)O)nc4)nc32)CC1` [CC-223], the “GOT3 cell line” value is recorded as 0.8.

As for `CC(C)(C)C[C@@H]1N[C@@H](C(=O)N[C@H]2CC[C@H](O)CC2)[C@H](c2cccc(Cl)c2F)[C@]12C(=O)Nc1cc(Cl)ccc12` [SAR405838], the “GOT3 cell line” value turned out to be 0.1.
